Measurements as given in patent publication US8722849B2, “Polypeptides” (Novo Nordisk A/S, priority 2011, dated 2014).
Converted amounts (≈) assume the structure as drawn. Read-outs that look alike come from different tables or passages of the source. Starred links: 1 amine or outer side, 2 acyl side, 3 side chain; linkers in the order of their positions; H or OH if unused. Positions of bridges follow the written chain, without caps; N, C: chain ends. Residues, ends and D or L forms follow the SMILES beside them. *: point of attachment. C20 diacid = O=C(O)CCCCCCCCCCCCCCCCCCC(=O)*; γGlu = O=C(O)[C@H](CCC(=O)[*:2])N[*:1]

Experiments:
[1] = molecular target: T1, human amylin receptor (amylin 3(a) receptor: human calcitonin receptor + RAMP-3) (Homo sapiens, UniProt O60896+P30988); assay: Assay (II)a functional CRE-luciferase assay, human amylin receptor; type: cell-based; conditions: Table 2; BHK amylin 3(a)-receptor/CRE-luc cells
T1 construct: expressed in transfected cells; host or cells: BHK570
T1 sequence (P30988 25-474): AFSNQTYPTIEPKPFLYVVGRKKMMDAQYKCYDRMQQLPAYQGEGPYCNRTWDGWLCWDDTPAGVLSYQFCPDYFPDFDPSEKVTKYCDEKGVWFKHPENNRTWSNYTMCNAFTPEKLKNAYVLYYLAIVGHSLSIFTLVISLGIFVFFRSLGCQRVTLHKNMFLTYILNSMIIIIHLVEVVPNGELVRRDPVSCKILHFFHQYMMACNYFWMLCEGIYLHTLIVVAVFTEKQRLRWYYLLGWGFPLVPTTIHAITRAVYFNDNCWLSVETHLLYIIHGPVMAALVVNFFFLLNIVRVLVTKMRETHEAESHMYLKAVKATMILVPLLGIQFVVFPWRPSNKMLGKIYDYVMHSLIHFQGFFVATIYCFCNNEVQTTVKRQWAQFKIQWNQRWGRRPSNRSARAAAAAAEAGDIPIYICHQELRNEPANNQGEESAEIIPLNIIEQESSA
T1 sequence (O60896 24-148 partner): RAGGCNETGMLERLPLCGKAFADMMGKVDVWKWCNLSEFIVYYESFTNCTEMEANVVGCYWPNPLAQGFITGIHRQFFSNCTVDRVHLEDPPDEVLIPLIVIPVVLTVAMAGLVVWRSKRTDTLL

[2] = molecular target: T2, human calcitonin receptor (Homo sapiens, UniProt P30988); assay: Assay (II)a functional CRE-luciferase assay, human calcitonin receptor; type: cell-based; conditions: Table 7; human calcitonin (CTa) receptor
T2 construct: expressed in transfected cells; host or cells: BHK570
T2 sequence (P30988 25-474): T1 sequence (P30988 25-474)

[3] = Assay (III) ThT fibrillation assay for physical stability; type: physicochemical
Summary of the method: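 Freshly prepared formulations, pH-adjusted, with 1 μM ThT; four or eight replicates incubated at 37 °C under 960 rpm orbital shaking. Fluorescence (ex 444/em 485 nm) read every 20 min; […]. Peptide concentration measured by RP-HPLC before and after the run.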

[4] = Assay (IV) determination of solubility; type: physicochemical
Summary of the method: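 Solubility is measured across pH 3.0–8.0 by mixing a ~500 nmol/ml aqueous polypeptide stock 1:1 with 100 mM glycylglycine or bistrispropane buffers. Samples stand 18 hours at room temperature, then are centrifuged and the soluble concentration is determined by HPLC.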

[5] = bistrispropane buffer, pH 6, pH 6.0, read-out: Solubility pH 6.0
[6] = bistrispropane buffer, pH 6.5, pH 6.5, read-out: Solubility pH 6.5
[7] = bistrispropane buffer, pH 7, pH 7.0, 18 hours at room temperature, Table 3, read-out: Solubility pH 7.0
[8] = bistrispropane buffer, pH 7, pH 7.0, Table 8, read-out: Solubility pH 7.0
[9] = bistrispropane buffer, pH 7, pH 7.0, Table 9, read-out: Solubility pH 7.0
[10] = bistrispropane buffer, pH 7, pH 7.0, read-out: Solubility pH 7.0
[11] = bistrispropane buffer, pH 7.5, pH 7.5, Table 9, read-out: Solubility pH 7.5
[12] = bistrispropane buffer, pH 7.5, pH 7.5, read-out: Solubility pH 7.5
[13] = bistrispropane buffer, pH 8, pH 8.0, read-out: Solubility pH 8.0
[14] = glycylglycine buffer, pH 3, pH 3.0, read-out: Solubility pH 3.0
[15] = glycylglycine buffer, pH 4, pH 4.0, 18 hours at room temperature, Table 2, read-out: Solubility pH 4.0
[16] = glycylglycine buffer, pH 4, pH 4.0, read-out: Solubility pH 4.0
[17] = glycylglycine buffer, pH 5, pH 5.0, read-out: Solubility pH 5.0

CC[C@H](C)[C@H](NC(=O)[C@@H]1CCCN1C(=O)CNC(=O)[C@H](Cc1ccccc1)NC(=O)[C@H](CC(N)=O)NC(=O)[C@H](CC(N)=O)NC(=O)[C@H](CO)NC(=O)[C@H](CO)NC(=O)[C@H](Cc1c[nH]cn1)NC(=O)[C@H](Cc1c[nH]cn1)NC(=O)[C@H](CC(C)C)NC(=O)[C@H](Cc1ccccc1)NC(=O)[C@H](CCC(=O)O)NC(=O)[C@H](C)NC(=O)[C@H](CC(C)C)NC(=O)[C@H](CCCCN)NC(=O)[C@H](CCC(N)=O)NC(=O)[C@@H](NC(=O)[C@H](C)NC(=O)[C@@H]1CSSC[C@H](NC(=O)[C@H](CCCCN)NC(=O)CC[C@H](NC(=O)CCCCCCCCCCCCCCCCCCC(=O)O)C(=O)O)C(=O)N[C@@H](CC(N)=O)C(=O)N[C@@H]([C@@H](C)O)C(=O)N[C@@H](C)C(=O)N[C@@H]([C@@H](C)O)C(=O)N1)[C@@H](C)O)C(=O)N[C@@H](CC(C)C)C(=O)N1CCC[C@H]1C(=O)N1CCC[C@H]1C(=O)N[C@H](C(=O)N[C@@H](CC(N)=O)C(=O)N[C@H](C(=O)NCC(=O)N[C@@H](CO)C(=O)N[C@@H](CC(N)=O)C(=O)N[C@H](C(=O)N1CCC[C@H]1C(N)=O)[C@@H](C)O)C(C)C)[C@@H](C)O [Example 145, N-alpha-[(S)-4-Carboxy-4-(19-carboxynonadecanoylamino)butyryl]-[Lys11,Glu14,His17,Pro37]-pramlintide] ({C20 diacid-γGlu}-KCNTATCATQKLAEFLHHSSNNFGPILPPTNVGSNTP-NH2; disulfide 2-7 (inferred))
EC50 [1]: 0.0805 nM | EC50 [2]: 0.083 nM | ThT pH 4.0 lag time ([3]; Table 8): >45 h | ThT pH 4.0 lag time ([3]; Table 9): >45 h | ThT pH 4.0 lag time ([3]; ThT fibrillation assay): >45 h | ThT pH 4.0 lag time (h) ([3]; ThT fibrillation assay): >45 h | solubility at 18 h [4, 5]: 178 µM (≈ 776 µg/mL) | solubility at 18 h [4, 6]: > 200 µM | solubility at 18 h [4, 7]: > 200 µM | solubility at 18 h [4, 8]: > 200 µM | solubility at 18 h [4, 9]: > 200 µM | solubility at 18 h [4, 10]: > 200 µM | solubility at 18 h [4, 11]: > 200 µM | solubility at 18 h [4, 12]: > 200 µM | solubility at 18 h [4, 13]: > 200 µM | solubility at 18 h [4, 14]: > 200 µM | solubility at 18 h [4, 15]: > 200 µM | solubility at 18 h [4, 16]: > 200 µM | solubility at 18 h [4, 17]: > 200 µM

CC[C@H](C)[C@H](NC(=O)[C@@H]1CCCN1C(=O)CNC(=O)[C@H](Cc1ccccc1)NC(=O)[C@H](CC(N)=O)NC(=O)[C@@H](NC(=O)[C@H](CO)NC(=O)[C@H](CO)NC(=O)[C@H](Cc1c[nH]cn1)NC(=O)[C@H](Cc1c[nH]cn1)NC(=O)[C@H](CC(C)C)NC(=O)[C@H](Cc1ccccc1)NC(=O)[C@H](CCC(=O)O)NC(=O)[C@H](C)NC(=O)[C@H](CC(C)C)NC(=O)[C@H](CCCNC(=N)N)NC(=O)[C@H](CCC(N)=O)NC(=O)[C@@H](NC(=O)[C@H](C)NC(=O)[C@@H]1CSSC[C@H](NC(=O)[C@H](CCCCN)NC(=O)CC[C@H](NC(=O)CCCCCCCCCCCCCCCCCCC(=O)O)C(=O)O)C(=O)N[C@@H](CC(N)=O)C(=O)N[C@@H]([C@@H](C)O)C(=O)N[C@@H](C)C(=O)N[C@@H]([C@@H](C)O)C(=O)N1)[C@@H](C)O)[C@@H](C)O)C(=O)N[C@@H](CC(C)C)C(=O)N1CCC[C@H]1C(=O)N1CCC[C@H]1C(=O)N[C@H](C(=O)N[C@@H](CC(N)=O)C(=O)N[C@H](C(=O)NCC(=O)N[C@@H](CO)C(=O)N[C@@H](CC(N)=O)C(=O)N[C@H](C(=O)N1CCC[C@H]1C(N)=O)[C@@H](C)O)C(C)C)[C@@H](C)O [Example 146, N-alpha-[(S)-4-Carboxy-4-(19-carboxynonadecanoylamino)butyryl]-[Glu14,His17,Thr21,Pro37]-pramlintide] ({C20 diacid-γGlu}-KCNTATCATQRLAEFLHHSSTNFGPILPPTNVGSNTP-NH2; disulfide 2-7 (inferred))
EC50 [1]: 0.091 nM | EC50 [2]: 0.0595 nM | ThT pH 4.0 lag time ([3]; Table 8): >45 h | ThT pH 4.0 lag time ([3]; Table 9): >45 h | ThT pH 4.0 lag time ([3]; ThT fibrillation assay): >45 h | ThT pH 4.0 lag time (h) ([3]; ThT fibrillation assay): >45 h | solubility at 18 h [4, 5]: > 200 µM | solubility at 18 h [4, 6]: > 200 µM | solubility at 18 h [4, 7]: > 200 µM | solubility at 18 h [4, 8]: > 200 µM | solubility at 18 h [4, 9]: > 200 µM | solubility at 18 h [4, 10]: > 200 µM | solubility at 18 h [4, 11]: > 200 µM | solubility at 18 h [4, 12]: > 200 µM | solubility at 18 h [4, 13]: > 200 µM | solubility at 18 h [4, 14]: > 200 µM | solubility at 18 h [4, 15]: > 200 µM | solubility at 18 h [4, 16]: > 200 µM | solubility at 18 h [4, 17]: > 200 µM

CC[C@H](C)[C@H](NC(=O)[C@@H]1CCCN1C(=O)CNC(=O)[C@H](Cc1ccccc1)NC(=O)[C@H](CC(N)=O)NC(=O)[C@H](CCC(N)=O)NC(=O)[C@H](CO)NC(=O)[C@H](CO)NC(=O)[C@H](Cc1c[nH]cn1)NC(=O)[C@H](CCCNC(=N)N)NC(=O)[C@H](CC(C)C)NC(=O)[C@H](Cc1ccccc1)NC(=O)[C@H](CCC(=O)O)NC(=O)[C@H](C)NC(=O)[C@H](CC(C)C)NC(=O)[C@H](CCCNC(=N)N)NC(=O)[C@H](CCC(N)=O)NC(=O)[C@@H](NC(=O)[C@H](C)NC(=O)[C@@H]1CSSC[C@H](NC(=O)[C@H](CCC(=O)O)NC(=O)[C@H](CCCNC(=N)N)NC(=O)[C@H](CCC(=O)O)NC(=O)CC[C@H](NC(=O)CCCCCCCCCCCCCCCCCCC(=O)O)C(=O)O)C(=O)N[C@@H](CC(N)=O)C(=O)N[C@@H]([C@@H](C)O)C(=O)N[C@@H](C)C(=O)N[C@@H]([C@@H](C)O)C(=O)N1)[C@@H](C)O)C(=O)N[C@@H](CC(C)C)C(=O)N1CCC[C@H]1C(=O)N1CCC[C@H]1C(=O)N[C@H](C(=O)N[C@@H](CC(N)=O)C(=O)N[C@H](C(=O)NCC(=O)N[C@@H](CO)C(=O)N[C@@H](CC(N)=O)C(=O)N[C@H](C(=O)N1CCC[C@H]1C(N)=O)[C@@H](C)O)C(C)C)[C@@H](C)O [Example 161, N-alpha-[(S)-4-Carboxy-4-(19-carboxynonadecanoylamino)butyryl]-Glu-Arg-[Glu1,Glu14,Arg17,Gln21,Pro37]-pramlintide] ({C20 diacid-γGlu}-ERECNTATCATQRLAEFLRHSSQNFGPILPPTNVGSNTP-NH2; disulfide 4-9 (inferred); C-terminus assumed)
EC50 [1]: 0.232 nM | EC50 [2]: 1.13 nM | ThT pH 4.0 lag time ([3]; Table 8): >45 h | ThT pH 4.0 lag time ([3]; Table 9): >45 h | ThT pH 4.0 lag time ([3]; ThT fibrillation assay): >45 h | ThT pH 4.0 lag time (h) ([3]; ThT fibrillation assay): >45 h | solubility at 18 h [4, 5]: > 200 µM | solubility at 18 h [4, 6]: > 200 µM | solubility at 18 h [4, 7]: > 200 µM | solubility at 18 h [4, 8]: > 200 µM | solubility at 18 h [4, 9]: > 200 µM | solubility at 18 h [4, 10]: > 200 µM | solubility at 18 h [4, 11]: > 200 µM | solubility at 18 h [4, 12]: > 200 µM | solubility at 18 h [4, 13]: > 200 µM | solubility at 18 h [4, 14]: > 200 µM | solubility at 18 h [4, 15]: > 200 µM | solubility at 18 h [4, 16]: > 200 µM | solubility at 18 h [4, 17]: > 200 µM
